According to patent US12178838B2, “Synthetic neuromodulatory peptides” (Lactocore, Inc., priority 2019, dated 2024):

System: Sprague Dawley rats
Assay: Predator odor stress exposure and conditioned place aversion (PTSD model)
Type: in vivo
Details: DOX 1 mg/kg IP
Protocol: Doxazosin (DOX, Sigma-Aldrich, St. Louis, MO, USA, 1 mg/kg, IP) was prepared in sterile saline. Previously it has been shown that DOX is effective in the treatment of some PTSD symptoms in veterans (Rodgman et al. (2016). Doxazosin XL reduces symptoms of posttraumatic stress disorder in veterans with PTSD: a pilot clinical trial. J. Clin. Psychiat., 77(5), e561-565). The two doses of FQSE (SEQ ID NO:10) (0.05 and 0.5 mg/kg, CS, Menlo Park, CA) were prepared fresh for each test day in sterile saline and administered intra-nasally 30 minutes prior to testing. Each dose was administered in a randomized order across groups. […] The same procedure with isoflurane was used to administer doxazosin however the drug was administered IP. Individuals performing behavioral tests were blind to drug treatment. […] Potential differences between groups that were not odor exposed and odor exposed groups were analyzed using One-Way ANOVA with drug dose as the primary factor. […]

behavior of groups not exposed to predator odor (time in randomly paired chambers) (FQSE 0.05 and 0.5 mg/kg i.n.): normal behavior
SMILES: COc1cc2nc(N3CCN(C(=O)C4COc5ccccc5O4)CC3)nc(N)c2cc1OC (centres unmarked) [Doxazosin]
predator odor-induced place aversion (FQSE 0.5 mg/kg intra-nasally, vs VEH): there was not a significant difference from VEH
